Assay results reported in patent US8546380B2, “Aminodihydrothiazine derivatives” (Shionogi & Co., Ltd., priority 2005, dated 2013).
Where two headings read alike, the source gives them in different places.

Biological target: recombinant human BACE-1 protein (Homo sapiens (Human), UniProt P56817)
Assay: Measurement of Inhibition of β-Secretase Activity
Assay type: biochemical
Procedure: Zero point five μL of the test compounds (dissolved in N,N′-dimethylsulfoxide) were incubated with 48.5 μL of the fluorescence-quenched peptide substrate solution (Biotin-XSEVNLDAEFRHDSGC-Eu:X=ε-amino-n-capronic acid, Eu=Europium cryptate) and 1 μL of recombinant human BACE-1 protein (R&D systems) for 3 h at 30° C. in the 96 well half-area plate (black color plate, Costar). The substrate peptide was synthesized by reacting with Biotin-XSEVNLDAEFRHDSGC (Peptide Institute) and Cryptate TBPCOOH mono SMP (CIS bio international). […] The enzymatic reaction was performed in sodium acetate buffer (50 mM sodium acetate (pH5.0), 0.008% Triton X-100). After the reaction, a 50 μL of 8.0 μg/mL Streptavidin-XL665 (CIS bio international) dissolved in phosphate buffer (150 mM K2HPO4—KH2PO4 (pH 7.0), 0.008% Triton X-100, 0.8 M KF) was add to each well and incubated for 1 h at 30° C.

[1] = fluorescence-quenched peptide substrate 18 nM, BACE-1 7.4 nM, 3 h at 30° C., pH5.0, read-out: IC50 value
[2] = recombinant human BACE-1 protein, 3 h at 30° C., pH5.0, read-out: IC50 value

recombinant human BACE-1 protein, sequence (P56817 46-501): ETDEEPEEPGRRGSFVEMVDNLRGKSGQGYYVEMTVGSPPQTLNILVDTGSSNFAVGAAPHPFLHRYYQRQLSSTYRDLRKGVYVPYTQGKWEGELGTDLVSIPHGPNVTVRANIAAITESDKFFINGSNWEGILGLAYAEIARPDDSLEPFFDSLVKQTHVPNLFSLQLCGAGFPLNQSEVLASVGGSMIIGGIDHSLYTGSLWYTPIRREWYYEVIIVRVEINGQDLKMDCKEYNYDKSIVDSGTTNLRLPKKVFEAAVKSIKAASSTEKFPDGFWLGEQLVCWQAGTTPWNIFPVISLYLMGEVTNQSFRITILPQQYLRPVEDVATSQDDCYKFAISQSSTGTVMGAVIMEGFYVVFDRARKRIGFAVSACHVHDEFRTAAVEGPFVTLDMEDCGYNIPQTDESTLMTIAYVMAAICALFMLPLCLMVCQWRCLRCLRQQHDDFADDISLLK

| SMILES | IC50 [1] [µM] | further results |
| --- | --- | --- |
| CC1(c2cccc(NC(=O)c3ccc(Cl)cc3Cl)c2)CCSC(N)=N1 (stereo not shown) [Compound 182] | < 100 | – |
| CC1(c2cc(Br)cc(NC(=O)c3ccco3)c2)CCSC(N)=N1 (stereo not shown) [Compound 370] | < 100 | – |
| COCc1cc(NC(=O)c2ccco2)cc(C2(C)CCSC(N)=N2)c1 (stereo not shown) [Compound 176] | – | IC50 [2]: 1.48 µM |
| COc1ccc(CC(=O)NCc2cccc(C3(C)CCSC(N)=N3)c2)cc1 (stereo not shown) [Compound 910] | < 100 | – |
| CC1(c2cccc(NCc3ccc(Cl)cc3)c2)CCSC(N)=N1 (stereo not shown) [Compound 753] | – | IC50 [2]: 5.6 µM |
| Cc1cccc2cc(C(=O)Nc3cccc(C4(C)CCSC(N)=N4)c3)[nH]c12 (stereo not shown) [Compound 908] | < 100 | – |
| CC1(c2cccc(OCC(=O)Nc3ccc(OC(F)(F)F)cc3)c2)CCSC(N)=N1 (stereo not shown) [Compound 326] | < 100 | – |
| CC1(c2cccc(OCC(=O)Nc3ccc(-n4cnc(Cl)c4Cl)cc3)c2)CCSC(N)=N1 (stereo not shown) [Compound 106] | < 100 | – |
| CC1(c2cc(NC(=O)c3ncc(Cl)cc3N)ccc2F)CCSC(N)=N1 (stereo not shown) [Compound 820] | < 100 | – |
| Cc1ccc(C(=O)Nc2cccc(C3(C)CCSC(N)=N3)c2)c(O)c1 (stereo not shown) [Compound 569] | < 100 | – |
| Cc1cccc(C(=O)Nc2cccc(C3(C)CCSC(N)=N3)c2)n1 (stereo not shown) [Compound 348] | < 100 | – |
| COc1ccc(C(=O)Nc2cccc(C3(C)CCSC(N)=N3)c2)c(OC)n1 (stereo not shown) [Compound 467] | < 100 | – |
| CC1(c2cccc(CNc3ccccn3)c2)CCSC(N)=N1 (stereo not shown) [Compound 281] | < 100 | – |
| CC1(c2cccc(NC(=O)c3ccc(OC(F)(F)F)cc3)c2)CCSC(N)=N1 (stereo not shown) [Compound 175] | < 100 | – |
| CC1(c2cccc(NC(=O)c3ccc(Br)cc3)c2)CCSC(N)=N1 (stereo not shown) [Compound 959] | < 100 | – |
| Cc1ccc(NC(=O)COc2cccc(C3(C)CCSC(N)=N3)c2)cc1O (stereo not shown) [Compound 639] | – | IC50 [2]: 7.9 µM |
| COCc1cc(NC(=O)c2ccc(OC(F)(F)F)cc2)cc(C2(C)CCSC(N)=N2)c1 (stereo not shown) [Compound 664] | – | IC50 [2]: 3.64 µM |
| CC1(c2cccc(NC(=O)COc3ccc(F)cc3)c2)CCSC(N)=N1 (stereo not shown) [Compound 17] | < 100 | – |
| CC1(c2cccc(NC(=O)c3ccc(Cl)nc3Cl)c2)CCSC(N)=N1 (stereo not shown) [Compound 865] | < 100 | – |
| Cc1ccc(C(=O)Nc2cccc(C3(C)CCSC(N)=N3)c2)c(C)c1 (stereo not shown) [Compound 12] | < 100 | – |
| C[C@@H](NC(=O)c1cc(NC(=O)c2ccc(Cl)cn2)cc(C2(C)CCSC(N)=N2)c1)c1ccccc1 (stereo partly shown) [Compound 1099] | < 100 | – |

| SMILES | IC50 [1] [µM] | further results |
| --- | --- | --- |
| COc1cnc(C(=S)Nc2cccc(C3(C)CCSC(N)=N3)c2)cn1 (stereo not shown) [Compound 1270] | < 100 | – |
| C/C(=N\OCc1ccccc1)c1cccc(C2(C)CCSC(N)=N2)c1 (stereo not shown) [Compound 620] | < 100 | – |
| Cc1cc(Cl)cnc1C(=O)Nc1cccc(C2(C)CCSC(N)=N2)c1 (stereo not shown) [Compound 802] | < 100 | – |
| CC1(c2cccc(NC(=O)c3cc(CO)on3)c2)CCSC(N)=N1 (stereo not shown) [Compound 894] | < 100 | – |
| CC1(c2cccc(NC(=S)Nc3ccc(Cl)cc3)c2)CCSC(N)=N1 (stereo not shown) [Compound 406] | < 100 | – |
| CC1(c2cccc(NC(=O)c3cccc4c3OCCO4)c2)CCSC(N)=N1 (stereo not shown) [Compound 207] | < 100 | – |
| CC1(c2cccc(NC(=O)c3ncc(C(F)(F)F)cc3Cl)c2)CCSC(N)=N1 (stereo not shown) [Compound 482] | < 100 | – |
| CC1(c2ccc(C(=O)NCCc3ccc(Cl)cc3)s2)CCSC(N)=N1 (stereo not shown) [Compound 442] | < 100 | – |
| CC1(c2ccc(NC(=O)c3ccc(Br)cc3)cc2)CCSC(N)=N1 (stereo not shown) [Compound 278] | < 100 | – |
| CC1(c2cccc(NC(=O)c3ccc(Cl)cc3F)c2)CCSC(N)=N1 (stereo not shown) [Compound 378] | < 100 | – |
| CCn1nc(C)cc1C(=O)Nc1ccc(F)c(C2(C)CCSC(N)=N2)c1 (stereo not shown) [Compound 661] | < 100 | – |
| COC(=O)c1ccc(C(=O)Nc2cccc(C3(C)CCSC(N)=N3)c2)cc1 (stereo not shown) [Compound 328] | < 100 | – |
| CC1(c2cc(NC(=S)c3ccc(Br)cc3)cc(S(C)(=O)=O)c2)CCSC(N)=N1 (stereo not shown) [Compound 71] | < 100 | – |
| CC1(c2cccc(C(=O)NCCc3ccc(Cl)cc3)c2)CCSC(N)=N1 (stereo not shown) [Compound 451] | < 100 | – |
| Cc1ccc(NC(=O)COc2cccc(C3(C)CCSC(N)=N3)c2)cc1F (stereo not shown) [Compound 1000] | – | IC50 [2]: 8 µM |
| CC1(c2ccc(C(=O)NCc3cccc(Cl)c3)cc2)CCSC(N)=N1 (stereo not shown) [Compound 363] | < 100 | – |
| CC1(c2cccc(C(=O)Nc3nccs3)c2)CCSC(N)=N1 (stereo not shown) [Compound 1256] | < 100 | – |
| Cc1cc(C(=O)Nc2cc(C3(C)CCSC(N)=N3)ccc2F)c(C)o1 (stereo not shown) [Compound 607] | < 100 | – |
| CC1(c2cccc(NC(=O)c3cnc(N4CCOCC4)cn3)c2)CCSC(N)=N1 (stereo not shown) [Compound 1264] | < 100 | – |
| Cc1nocc1C(=O)Nc1cccc(C2(C)CCSC(N)=N2)c1 (stereo not shown) [Compound 307] | < 100 | – |
| CC1(c2cc(Br)cc(NC(=O)c3ccccn3)c2)CCSC(N)=N1 (stereo not shown) [Compound 1160] | – | IC50 [2]: 0.72 µM |

| SMILES | IC50 [1] [µM] | further results |
| --- | --- | --- |
| Cn1nc(C(=O)Nc2cccc(C3(C)CCSC(N)=N3)c2)cc1CO (stereo not shown) [Compound 358] | < 100 | – |
| CC1(c2cccc(NC(=O)c3cccc(Br)c3)c2)CCSC(N)=N1 (stereo not shown) [Compound 273] | < 100 | – |
| CC1(c2cccc(NC(=O)c3c(O)cccc3F)c2)CCSC(N)=N1 (stereo not shown) [Compound 575] | < 100 | – |
| CC1(c2cccc(OCC(=O)Nc3ccc4ccccc4n3)c2)CCSC(N)=N1 (stereo not shown) [Compound 390] | < 100 | – |
| CC1(c2cccc(NCCc3ccc(F)cc3)c2)CCSC(N)=N1 (stereo not shown) [Compound 966] | < 100 | – |
| CC1(c2cccc(OCCCc3ccncc3)c2)CCSC(N)=N1 (stereo not shown) [Compound 1221] | < 100 | – |
| CC1(c2cccc(NC(=O)c3ccc(Cl)c(Cl)c3)c2)CCSC(N)=N1 (stereo not shown) [Compound 369] | < 100 | – |
| CC1(c2cccc(NC(=O)c3ccc(NCc4ccccc4)cn3)c2)CCSC(N)=N1 (stereo not shown) [Compound 608] | < 100 | – |
| Cc1cccnc1C(=O)Nc1cccc(C2(C)CCSC(N)=N2)c1 (stereo not shown) [Compound 240] | < 100 | – |
| COc1ccc(C(=O)Nc2cccc(C3(C)CCSC(N)=N3)c2)nc1 (stereo not shown) [Compound 781] | < 100 | – |
| CNc1nc(OC)cnc1C(=O)Nc1cccc(C2(C)CCSC(N)=N2)c1 (stereo not shown) [Compound 353] | < 100 | – |
| COc1cnc(C(=O)Nc2cccc(C3(C)CCSC(N)=N3)c2)c(C)c1 (stereo not shown) [Compound 1211] | < 100 | – |
| CC1(c2cccc(NC(=O)c3ncc(Cl)cc3N)c2)CCSC(N)=N1 (stereo not shown) [Compound 472] | < 100 | – |
| COCC(=O)Nc1cccc(C2(C)CCSC(N)=N2)c1 (stereo not shown) [Compound 988] | < 100 | – |
| CC1(c2cccc(NC(=O)c3cc4ccccc4o3)c2)CCSC(N)=N1 (stereo not shown) [Compound 303] | < 100 | – |
| CC1(c2cccc(C(=O)Nc3nc4ccc(O)cc4s3)c2)CCSC(N)=N1 (stereo not shown) [Compound 1089] | < 100 | – |
| CC1(c2cccc(OCC(=O)Nc3ccc(Cl)cc3)c2)CCSC(N)=N1 (stereo not shown) [Compound 246] | – | IC50 [2]: 2.9 µM |
| CC(=O)c1ccc(C(=O)Nc2cccc(C3(C)CCSC(N)=N3)c2)cc1 (stereo not shown) [Compound 314] | < 100 | – |
| COc1ccc(NC(=O)CCc2cccc(C3(C)CCSC(N)=N3)c2)cc1 (stereo not shown) [Compound 1039] | < 100 | – |
| COc1cnc(C(=O)Nc2cccc(C3(C)CCSC(N)=N3)c2)c(N)n1 (stereo not shown) [Compound 906] | < 100 | – |
| CC1(c2cccc(COC(=O)Cc3ccccc3)c2)CCSC(N)=N1 (stereo not shown) [Compound 1140] | – | IC50: < 100 µM |

| SMILES | IC50 [1] [µM] | further results |
| --- | --- | --- |
| CCOC(=O)C#Cc1cccc(C2(C)CCSC(N)=N2)c1 (stereo not shown) [Compound 933] | < 100 | – |
| CCOC(=O)C(F)=Cc1cccc(C2(C)CCSC(N)=N2)c1 (stereo not shown) [Compound 1205] | – | IC50 [2]: 8.1 µM |
| CC1(c2cccc(NC(=O)c3ccc(-c4ccccc4)cc3)c2)CCSC(N)=N1 (stereo not shown) [Compound 761] | < 100 | – |
| CC1(c2cccc(NC(=O)c3ccco3)c2)CCSC(N)=N1 (stereo not shown) [Compound 335] | < 100 | – |
| CC1(c2cccc(NC(=O)c3ccc(C(F)(F)F)cc3)c2)CCSC(N)=N1 (stereo not shown) [Compound 479] | < 100 | – |
| CC1(c2cccc(NC(=O)c3ccc(OCc4ccccc4)cc3)c2)CCSC(N)=N1 (stereo not shown) [Compound 144] | < 100 | – |
| Cc1ccc(CNc2cccc(C3(C)CCSC(N)=N3)c2)cc1 (stereo not shown) [Compound 259] | < 100 | – |
| CC1(c2cccc(NC(=O)c3cnc(N)cn3)c2)CCSC(N)=N1 (stereo not shown) [Compound 1265] | < 100 | – |
| CC1(c2cccc(NC(=O)c3ccc(-n4cccn4)cc3)c2)CCSC(N)=N1 (stereo not shown) [Compound 321] | < 100 | – |
| CC1(c2cc(NC(=O)c3ccc(Cl)cc3)ccc2F)CCSC(N)=N1 (stereo not shown) [Compound 31] | < 100 | – |
| CC1(c2cc(Cl)cc(NC(=O)c3ccc(Br)cc3)c2)CCSC(N)=N1 (stereo not shown) [Compound 698] | – | IC50 [2]: 0.165 µM |
| CC1(c2cccc(NC(=S)Nc3ccc(Br)cc3)c2)CCSC(N)=N1 (stereo not shown) [Compound 43] | < 100 | – |
| CC1(c2cc(F)cc(NC(=O)c3ncccc3C(N)=O)c2)CCSC(N)=N1 (stereo not shown) [Compound 947] | < 100 | – |
| COc1ccc(NC(=O)NCc2cccc(C3(C)CCSC(N)=N3)c2)cc1 (stereo not shown) [Compound 159] | < 100 | – |
| CC1(c2cccc(NC(=O)c3ccc(N)cn3)c2)CCSC(N)=N1 (stereo not shown) [Compound 279] | < 100 | – |
| CC1(c2cccc(NC(=O)CCNC(=O)c3ccc(F)cn3)c2)CCSC(N)=N1 (stereo not shown) [Compound 816] | < 100 | – |
| Cn1c(C(=O)Nc2ccc(F)c(C3(C)CCSC(N)=N3)c2)cc2ccccc21 (stereo not shown) [Compound 586] | < 100 | – |
| CC1(c2cccc(NC(=O)c3ccc(CO)cn3)c2)CCSC(N)=N1 (stereo not shown) [Compound 80] | < 100 | – |
| CC1(c2cccc(OCC(=O)Nc3cccc(Cl)c3)c2)CCSC(N)=N1 (stereo not shown) [Compound 1145] | < 100 | – |
